Data reported in PubChem BioAssay AID179 (DTP/NCI, 2004).
pEC50, pIC50: −log10 of the molar value. Values joined by “and” are separate entries in the source; they are usually repeats but may differ in a detail not shown here. Identical values can stand only once. Active and inactive are the calls of the source.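 Rule for the calls: active = compounds giving half or more protection of infected cells from virus-caused growth loss, again on retest; inactive = the rest.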 Where a SMILES comes first, the peptide text is derived from it. The star is where a group is joined. Cbz = O=C(OCc1ccccc1)*; Boc = CC(C)(C)OC(=O)*

System: CEM cells HIV-1 protection, formazan growth assay
Experiment: NCI AIDS Antiviral Assay
Settings: for pIC50: measured here: growth of uninfected CEM cells
In short: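 Screen of anti-HIV-1 activity in human CEM cells using a formazan-based growth measurement at five drug concentrations. Hits with 50% or greater protection were repeated, and confirmation required reproducible complete protection.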

Row | SMILES | pEC50 | pIC50 | outcome
1 | O=NN(CCCl)C(=O)NCCCl | < 2.94 | < 2.94 | –
2 | O=C(Nc1ccc(F)c(Cl)c1)Nc1cc(Cl)ccc1SSc1ccc(Cl)cc1NC(=O)Nc1ccc(F)c(Cl)c1 | < 4.18 | 4.93 | –
3 | CN(C)CCCNC(=O)c1cc(NC(=O)c2cc(NC(=O)c3cc(NC(=O)c4ccc(C(=O)Nc5cn(C)c(C(=O)Nc6cn(C)c(C(=O)Nc7cn(C)c(C(=O)NCCCN(C)C)n7)n6)n5)cc4)cn3C)cn2C)cn1C | < 4.30 | < 4.30 | –
4 | c1ccc(-n2nc3ccc4nonc4c3n2)cc1 | < 3.70 | < 3.70 | –
5 | C1C2CC3C1C1CN3C21 (stereo not given) | < 3.14 | < 3.14 | –
6 | S=c1c2ccccc2c(=S)n(-c2ccccc2)n1-c1ccccc1 | < 3.70 | < 3.70 | –
7 | Nc1ccn(CC2OCC(CO)O2)c(=O)n1 (stereo not given) | < 2.46 | 2.53 and 2.52 | –
8 | CC(C)C1COC(c2ccc3ccccc3c2-c2c(O[Si](C)(C)C(C)(C)C)ccc3ccccc23)=N1 (stereo not given) | < 5.12 | < 5.12 | –
9 | CCOC(=O)c1cc(NC(=O)c2ccccc2)c(=O)n2c(cc3c(Cl)cccc32)c1O | < 3.70 | < 3.70 | –
10 | COc1ccc(/C(C#N)=C(/N)SCc2ccccc2Cl)cc1 | – | – | inactive
11 | Cc1cc(=O)c2c(O)c3c(O)cc(O)c4c5c(O)cc(O)c6c(O)c7c(=O)cc(C)c8c1c2c(c34)c(c65)c78 | < 4.00 | – | –
12 | O/N=C1/CCCC/C1=C/c1ccc(Cl)cc1 | – | – | inactive
13 | C#CCCCCC#CC1CCCC1C1=CC(=O)c2ccccc21 (stereo not given) | < 4.00 | 5.22 | –
14 | CCOC(=O)C1CCn2c(nc3c(=O)n(C)c(=O)n(C)c32)S1 (stereo not given) | – | – | inactive
15 | CCOC(=O)c1cn(CC)c2ccc3ccsc3c2c1=O | – | – | inactive
16 | CC1CN=C(NS(=O)(=O)c2cc(C(=O)Nc3ccc(F)cc3)c(Cl)cc2S)NN1 (stereo not given) | < 3.70 | 4.62 | –
17 | FC(F)(Sc1ccccn1)c1nc2ccccc2o1 | 4.83 | 4.05 | –
18 | COc1ccc(C2OC(=O)c3ncccc32)cc1 (stereo not given) | < 3.70 | < 3.70 | –
19 | CC(=O)NC(C(=O)O)(C(=O)O)C(C)CC(=O)O (stereo not given) | < 3.70 | < 3.70 | –
20 | COc1ccc(S(=O)Cc2ccc(C(=O)O)cc2[N+](=O)[O-])cc1 (stereo not given) | < 3.13 | 3.20 | –
21 | Cc1ncc([N+](=O)[O-])n1CCO | < 3.70 | < 3.70 | –
22 | S=C(NNc1ccccc1)SSSC(=S)NNc1ccccc1 | < 3.70 | 4.58 | –

Row | SMILES | pEC50 | pIC50 | outcome
23 | Oc1ccc(-c2nc(-c3cccnc3)c(-c3ccc(F)cc3)[nH]2)cc1 | < 3.70 | 4.51 | –
24 | CCOC(=O)/C=C/n1c2ccccc2c(=O)c2ccccc21 | < 5.03 | < 5.03 | –
25 | NC(Cc1cc(O)c(O)c(S(=O)(=O)c2ccccc2)c1)C(=O)O (stereo not given) | – | – | inactive
26 | COc1cc(/C=C(\NC(=O)c2ccccc2)c2nc3ncncc3[nH]2)cc(OC)c1OC | – | – | inactive
27 | CC(C)(C)OC(=O)NC(C)(C)C(=O)NCCC(=O)O | < 3.70 | < 3.70 | –
28 | CC(O)C(O)C(O)C(O)c1nc2ccccc2[nH]1 (stereo not given) | – | – | inactive
29 | COc1cc2c3c(c1OC)-c1cc(O)ccc1C[C@H]3NCC2 | – | – | inactive
30 | O=C(N/C(=C\c1cccc([N+](=O)[O-])c1)c1nc2ccc([N+](=O)[O-])cc2[nH]1)c1ccccc1 | – | – | inactive
31 | COC(=O)C1Cc2c([nH]c3ccccc23)-c2[nH]c3ccccc3c2CC(NC(C)=O)C(=O)N2CCCC2C(=O)N1 (stereo not given) | < 3.70 | 4.44 | –
32 | CC(NC(=O)C(NC(=O)OCc1ccccc1)C(C)C)C(=O)NCC(=O)O (stereo not drawn) (Cbz-Val-Ala-Gly-OH; configuration not given here) | < 3.70 | < 3.70 | –
33 | CCOC(=S)SSSC(=S)OCC | < 3.96 | 4.46 | –
34 | CN=C(N)N=Nc1c(O)[nH]c2ccccc12 | < 3.70 | < 3.70 | –
35 | OC(c1ccco1)C(F)(F)c1nc2ccccc2o1 (stereo not given) | < 3.70 | < 3.70 | –
36 | O=C(N/C(=C\c1ccc(Br)cc1)c1nc2ccccc2[nH]1)c1ccccc1 | < 4.21 | 4.47 | –
37 | O=C1/C(=C/c2cccc(Br)c2)CSC/C1=C\c1cccc(Br)c1 | < 3.70 | 5.54 | –
38 | COc1cc(SSc2ccc(N)c(OC)c2)ccc1N | < 3.70 | 4.58 | –
39 | CC1(C)CCc2cc3c(-c4ccccc4)cc(=O)oc3cc2O1 | – | – | inactive
40 | CC1c2c(cc(OC(=O)c3cccc(S(=O)(=O)F)c3)nc2OC(=O)c2cccc(S(=O)(=O)F)c2)C(=O)N1Cc1ccccc1 (stereo not given) | < 4.95 | 5.73 | –
41 | COc1ccc2nc(C(=O)c3ccccc3)c(C)cc2c1 | < 4.59 | 4.76 | –
42 | Cn1c(=O)oc2cc(C(=S)N3CCC(Cc4ccccc4)CC3)ccc21 | < 3.70 | < 3.70 | –
43 | O=C(Nc1ccccc1)OCCN=C1c2ccccc2CCc2ccccc21 | < 3.70 | 4.73 | –
44 | COc1cccc(/C=C2\CCc3ccccc3C2=O)c1 | < 4.84 | < 4.84 | –

Row | SMILES | pEC50 | pIC50 | outcome
45 | CNC(=O)NC1ON=C(c2ccccc2)C1C(=O)NC (stereo not given) | < 3.70 | 3.74 | –
46 | O=C(OCc1ccccc1)C1CCN1C(c1ccccc1)c1ccccc1 (stereo not given) | < 4.00 | < 4.00 | –
47 | COc1ccc(/C(=N/OCCCC(=O)O)c2cccs2)cc1 | – | – | inactive
48 | CCN(CC)CCC(=O)OC1C(C)=CC(C)C(=O)CC(C(C)CC2CCC(O)C(OC)C2)OC(=O)C2CCCCN2C(=O)C(=O)[C@@]2(O)OC(CCC2C)CC(OC)\C(C)=C/C=C/C=C/C(C)CC(C)C(=O)C1OC (stereo not given in full) | < 3.70 | 5.04 | –
49 | CC(=O)OC1[C@@H]2[C@@H](COC(c3c(F)cccc3Cl)N2OC(C)=O)O[C@H]1n1ccc(=O)[nH]c1=O (stereo not given in full) | < 3.70 | 3.94 | –
50 | COc1ccc(-c2coc3cc(OC)c(OC)c(OC)c3c2=O)cc1 | < 3.70 | < 3.70 | –
51 | CCOC(=O)C1(C(=O)OCC)COS(=O)OC1 | < 3.73 | 4.01 | –
52 | S=c1sc2ccccc2n1CNc1ccccc1Cl | < 3.70 | 4.55 | –
53 | O=C[C@@H](CO)O[C@H](C=O)c1c[nH]c(=O)[nH]c1=O | < 2.99 | 3.97 | –
54 | CCOc1ccc(NC(=O)C(=O)C(/C(=N/N)C(=O)OC)c2nc3ccc([N+](=O)[O-])cc3[nH]c2=O)cc1 (stereo not given) | < 4.84 | < 4.84 | –
55 | O=[N+]([O-])c1ccc(-c2cn3nc(-c4ccccc4)c(-c4ccccc4)nc3n2)cc1 | < 4.88 | < 4.88 | –
56 | O=C(c1ccccc1)n1cc(-c2ccccc2)c2c(=O)[nH]cnc21 | < 3.70 | < 4.00 | –
57 | Nc1nc(NCCOCP(=O)(O)O)c(C=O)c(=O)[nH]1 | < 3.70 | < 3.70 | –
58 | CCC1(O)CCCC2C3CCC4CC(=O)CCC4(C)C3C(=O)CC21C (stereo not given) | < 3.70 | 3.98 | –
59 | COC(=O)C(Cc1ccccc1)NC(=O)C(CS)NC(=O)OC(C)(C)C (stereo not drawn) (Boc-Cys-Phe-OMe; configuration not given here) | < 3.70 | 5.02 | –
60 | COc1ccc2c(c1)CCC1=C2C=C[P+]1(C)C | – | – | inactive
61 | c1ccc([P+](Cc2ccc(C[P+](c3ccccc3)(c3ccccc3)c3ccccc3)s2)(c2ccccc2)c2ccccc2)cc1 | 4.79 | 4.46 | –
62 | COc1ccc(C2COc3c(ccc(OC)c3OC)C2=O)cc1OC (stereo not given) | – | – | inactive
63 | COc1cc(Br)c(/C(=C\c2ccccc2N)C(=O)O)cc1OC | – | – | inactive
64 | CCOC(=O)CN1CCNCCN(CC(=O)OCC)CCNCC1 | < 4.00 | 5.01 | –
65 | CC(=O)CCCC(CC(C)O)[Si](C)(C)C (stereo not given) | < 2.97 | 3.25 | –
66 | C=C1[C@@H](OC(C)=O)[C@H]2[C@@H](OC(C)=O)[C@@](C)(OC(C)=O)C[C@]2(OC(C)=O)C(=O)[C@@H](C)/C=C/C(C)(C)C(=O)C[C@H]1OC(C)=O | < 3.70 | 4.14 | –

Row | SMILES | pEC50 | pIC50 | outcome
67 | CCOC(=O)c1c(-c2ccc(OC)c(O)c2)c(C#N)c(=S)n(C2OC(CO)C(O)C(O)C2O)c1-c1ccccc1 (stereo not given) | < 3.70 | < 3.70 | –
68 | CC(=O)Nc1c(I)c(NC(C)=O)c(I)c(C(=O)O)c1I | – | – | inactive
69 | Cc1cc2c3ccccc3n(C)c2c2c1C(=O)c1ccccc1C2=O | < 5.10 | < 5.10 | –
70 | NS(=O)(=O)c1ccc(NC(=O)c2ccc3nc4ccccc4c(Nc4ccc(S(N)(=O)=O)cc4)c3c2)cc1 | 4.17 | < 3.70 | –
71 | C1COC2SC3=C(SC(=C4SC5=C(SCCS5)S4)S3)SC2O1 (stereo not given) | < 4.00 | < 4.00 | –
72 | COc1ccc(CCc2ncc[nH]2)cc1 | < 3.15 | < 3.15 | –
73 | CCC(C)C(NC(=O)C(CCC(N)=O)NC(=O)C(CCCCN)NC(=O)C(CO)NC(=O)C(CC(C)C)NC(=O)C(Cc1ccc(O)cc1)NC(=O)C(C)N)C(=O)NC(C)C(=O)NC(CO)C(=O)NC(CC(N)=O)C(=O)O (stereo not given) (H-AYLSKQIASN-OH; configuration not given here) | < 4.24 | < 4.24 | –
74 | CN(CCC#N)c1ccc(/C=C(\C#N)c2ccc(Br)cc2)cc1 | < 3.70 | 5.34 | –
75 | N#CCCN(C(=O)Nc1ccc(NC(=O)N(CCC#N)c2ccccc2)cc1)c1ccccc1 | < 3.70 | < 3.70 | –
76 | CCOC(=O)c1c(N)[nH]c(SSc2[nH]c(N)c(C(=O)OCC)c2C(=O)OCC)c1C(=O)OCC | < 3.70 | 6.38 | –
77 | CC(=O)c1ccc(NC(=O)COC(=O)c2cccc3c(=O)c4ccccc4[nH]c23)cc1 | – | – | inactive
78 | COc1ccc(/C=c2/sc3n(c2=O)C(c2ccccc2)C2(O)CCCCC2N=3)cc1 (stereo not given) | < 3.70 | < 3.70 | –
79 | O=C1C(=C2C(=O)c3ccccc3[N+]2=O)N([O-])c2ccccc21 | – | – | inactive
80 | Cc1ccc(C2=[N+]([O-])c3ccccc3C2=O)cc1 | – | – | inactive
81 | CC1=C(c2ccccc2)C(c2ccccc2)=C(c2ccccc2)C2(c3ccccc3)C(=O)C(C)CN12 (stereo not given) | < 5.24 | < 5.24 | –
82 | COC(=O)c1cc2ccccc2c(=O)s1 | < 4.79 | < 4.79 | –
83 | S=c1cc(S)c(=S)[nH][nH]1 | < 4.20 | 4.71 | –
84 | Cc1ccc(CN2CC(=O)N3Cc4ccccc4CN3C(=O)C2)cc1 | – | – | inactive
85 | CC1(O)CCC2(C#N)CCC1C2O (stereo not given) | < 2.86 | < 2.86 | –
